Experimental data as given in article PMC4992173, “Divergent synthesis and identification of the cellular targets of deoxyelephantopins” (Nature Communications, 2016).

Molecular target: human PPARγ
Experiment: Gel-based PPARγ binding kinetics (Kitz and Wilson)
Conditions: recombinant PPARγ, 10-60 min preincubation, 24c-Cy3 readout, n=3
Method: Briefly, recombinant human PPARγ was pretreated with compounds at 20 μM concentration followed by the probe 24c-Cy3. […] Assuming covalent bond formation with PPARγ, we applied the method of Kitz and Wilson[52] to determine the kinetic values Ki and kinact for deoxyelephantopin and compound 19a (Supplementary Fig. 17). We observed clear time-dependent shift in half-maximal inhibitory concentration (IC50) values characteristic for an irreversible mode of binding.
Supplementary figure 17: Determination of the kinetic values Ki and kinact for 19a and DEP as binders to human PPARγ (n = 3).
Supplementary figure 18: F γ
24c-Cy3 after pretreatment with 10 mM IAA or DMSO. […]
for 30 min. at 37 °C under 5% CO2 atmosphere. Cells were washed one time with PBS and fixed with 4% paraformaldehyde for 20 min. at r.t. Coverslips were washed three times with PBS, one time with water and then mounted on a slide with ProLong Gold antifade mountant with DAPI (Life Technologies). Cells were visualized with an LSM 700 confocal microscope […]
Annexin V and PI staining for cell microscopy. […]
In situ labeling experiments. […] Gels were visualized at 625 nm using a Hitachi FMBIO II Multi-View fluorescence scanner, then […]
visualization were performed as described above. Images were quantified with ImageJ and kinetics values were calculated using GraphPad Prism (V6.03). […]

SMILES	kinact/Ki
C=C(C)C(=O)O[C@H]1CC2=C[C@H](C/C=C\[C@H]3OC(=O)C(=C)[C@H]13)OC2=O [19a]	1,241 M^−1 min^−1
C=C(C)C(=O)O[C@H]1CC2=C[C@@H](C/C(C)=C/[C@H]3OC(=O)C(=C)[C@H]13)OC2=O [deoxyelephantopin]	680 M⁻¹ min⁻¹
